Test results reported in US10959450B2, “Food composition for relieving symptoms of allergic and autoimmune diseases” (priority 2017, dated 2021).

Test system: H1N1 flu
Assay: Clinical Trial 6, influenza patient (H1N1 flu)
Type: in vivo
Details: person; Tamiflu taken for a week
From the text: They were a patient taking Tamiflu against symptoms of H1N1 flu and taking it for a week.

CCOC(=O)C1=C[C@@H](OC(CC)CC)[C@H](NC(C)=O)[C@@H](N)C1 [Tamiflu]
improvement of symptoms of H1N1 flu: minimal
